Here are results for 17 substances from patent US8759300B2, “Polypeptides and methods of use” (The Research Foundation for the State University of New York, priority 2007, dated 2014).

“Also recorded” adds a separate entry of the source. No end group written: not given here.

The target in test [1] is T1, PDGF-BB (Homo sapiens, UniProt P01127). As to the kind of experiment: Equilibrium binding of 125I-PDGF-BB to FN, FN domains and peptides. To be noted: for PDGF-BB binding, in words: equilibrium binding and/or plasmon resonance; for Kd: equilibrium binding. On the procedure:
(§1) 20 μl of 50% v/v peptide-agarose beads are incubated with 125I-PDGF in 0.1 ml of binding buffer (DMEM+2% BSA) at room temperature for 2 hours with rotation. Beads are washed 6 times with DMEM. Bound PDGF-BB are released by the addition of 100 μl of 1M NaOH. The radioactivity bound to FN-beads are quantified in a γ-counter. Nonspecific binding are established from ^125I-PDGF binding to nonconjugated beads, then specific binding derived by subtraction of nonspecific binding from total binding. Binding constants (KD) and Bmax are determined from nonlinear regression of specific binding curves using Prism 4 from GraphPad Software, San Diego, Calif. “Scatchard plots” are derived from the KD and Bmax obtained with non linear regression analysis.

Test [2] concerns GFs (TGF-β1, PDGF-BB, VEGF, FGF-2). As to the kind of experiment: Binding of growth factors to FN domains, GFs reported together. Here is the method:
as §1
(§2) In the Biacore2000 system, binding constants from kinetic data are determined by passing varying concentrations of FN peptides (analytes) over chip surfaces which are coupled with PDGF-BB (ligand), respectively. All kinetic experiments are carried out at 20° C. at a flow rate of 20 μl/min. For mass transport experiments, each analyte is injected at a fixed concentration and run at flow rates ranging from 5 to 75 μl/min. All analytes are injected over PDGF-BB ligand surfaces as well as over a control surface for 120 s, followed by 300 s of dissociation in running buffer. Regeneration of the sensor chip for subsequent injections is accomplished by pulse of 0.1% SDS. Mass transport experiments have detected little difference in response at different flow rates thus validating data from kinetic experiments. Sensorgrams are prepared and globally fitted using nonlinear least-squares analysis and numerical integration of the differential rate equations with the Biacore Bioevaluation software. Each sensogram generated using a control surface is substracted from the corresponding experimental sensorgrams, and the resulting curves are transformed to concentration units using the molecular mass of the injected species, the equivalence of 1000 resonance units (RU) per 1 ng/mm^2, and a matrix thickness of 100 nm. Each data set, which consists of a series of sensorgrams from injections of different concentration of analyte over the same surface, are analyzed using kinetic models from Biaevaluation software.

The target of test [3] is T1, PDGF-BB. The experiment in a line: Surface plasmon resonance (Biacore), PDGF-BB. It counts as binding. To be noted: plasmon resonance, kinetic binding. Here is the method: as §2, with “Each sensogram generated using a control surface is substracted from the corresponding experimental sensorgrams, and the resulting curves are transformed to concentration units using the molecular mass of the injected species, the equivalence of 1000 resonance units (RU) per 1 ng/mm^2, and a matrix thickness of 100 nm.” left out

Test [4] has as its system FN-null cells. The experiment in a line: FN-null cell survival on surfaces coated with FN domains. The test is classed as cell-based, mouse. To be noted: for FN-null cell survival / proliferation: FNIII8-11 ± named FN domain, or named FN construct, PDGF-BB added 2 hrs after plating; for FN-null cell survival / proliferation, summary statement: cells plated on named FN construct, or on FNIII8-11 ± named domain; for FN-null cell survival with PDGF at 3 days: surface precoated with 0.15 μM GST-tagged FNIII8-11 ± named FN domain, or named FN construct, PDGF-BB added 1 day after plating. On the procedure:
To further investigate the response of cells to PDGF-BB bound to FN domains, we investigated the survival response of mouse fibroblasts null for FN (FN−/−), or “FN-null”. First we determined the response of FN-null cells to PDGF-BB in the absence of serum or other sources of exogenous FN. […] Next, FN-null cells were plated on tissue culture plastic surfaces precoated with 0.15 μM GST-tagged FNIII8-11±other FN domains known to have PDGF-BB binding activity and then PDGF-BB added 1 day later. […] Importantly, differential response of FN-null cells, plated on different FN domains, to PDGF-BB was not secondary to differences in attachment as judged by cell counts two hours after plating. The FNIII8-11 central cell binding domain was present in all circumstances.

Test [5] addresses bFGF (FGF-2) (Homo sapiens, UniProt P09038). As to the kind of experiment: Equilibrium binding of bFGF (FGF-2) to FN and FN domains. Here is the method:
[The source words this procedure for another target and reports this target under the same test.] as §1

Test [6] has as its target T2, VEGF (Homo sapiens, UniProt P15692).
T2 sequence (P15692 27-191 isoform P15692-4): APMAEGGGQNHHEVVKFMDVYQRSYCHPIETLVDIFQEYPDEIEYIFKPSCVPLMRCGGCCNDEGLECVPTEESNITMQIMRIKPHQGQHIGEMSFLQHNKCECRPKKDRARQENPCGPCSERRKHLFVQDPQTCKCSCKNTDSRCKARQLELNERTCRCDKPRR
The experiment in a line: Surface plasmon resonance, VEGF. The test is classed as binding.

The target of test [7] is TGF-β1 (Homo sapiens, UniProt P01137). The experiment in a line: Equilibrium binding of TGF-β1 to FN, FN domains and peptides. Conditions: for TGF-β1 binding, in words: equilibrium and/or kinetic binding. On the procedure: [The source words this procedure for another target and reports this target under the same test.] as §1
TGF-β1, sequence (P01137 279-390 limits assumed): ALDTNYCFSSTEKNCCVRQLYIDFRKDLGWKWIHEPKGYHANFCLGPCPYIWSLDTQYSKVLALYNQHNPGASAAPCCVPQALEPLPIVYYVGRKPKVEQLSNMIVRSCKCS
The subject of test [8] is FN-null cells. As to the kind of experiment: FN-null cell assay, peptides added directly to medium on FNIII8-11. It counts as cell-based, mouse. On the procedure: FIG. 6. FN-null fibroblast response to soluble, unconjugated P5 (SEQ ID NO:37). FN-null cells were cultured at 4,000 cells/well in 96 well plates precoated with 0.125 mM of FNIII8-11 in DMEM for 4 hrs, and then further incubated in DMEM+2% BSA with or without the indicated concentrations of Peptide 5 at 37° C. for 3 days. Cells were counted in three 10× fields in each of 4 wells (mean±SD, n−12).
Scrambled variants of peptides 1 and 5 had no activity in these assays.
Variants of peptide 5 derived from fibronectin were generated by removing one amino acid at a time from the N-terminus or C-terminus of Peptide 5 (Table 2). These peptides (P12-P24) were added directly to medium with or without PDGF-BB.

Test [9] concerns the target T3, PDGF-BB binding to FNIII1, FNIII12-14 and IIICS (Homo sapiens, UniProt P01127).
T3 construct: made in house; host or cells: E. coli BL21DE3LysS (FN domains only)
As to the kind of experiment: Inhibition by peptides of PDGF-BB binding to FN domains. Conditions: all three FN domains. An excerpt:
To further localize PDGF-BB binding within FNIIII, we acquired a peptide from the central 76 amino acids (aa) of FNIII1 (FN630-704) (FIG. 4), which has anti-angiogenic properties and promotes FN polymerization. […] Next, we looked for sequence homologies within the two halves of the peptide and discovered the sequence pattern noted above ([QN]-X(1,2)-[ST]-X(0,1)-[IG]-[QS]-[KRQ]-[YTM]-[IG]-X(4,5)-X(0,1)-[KR]-X(1,2)-X(1,2)-[RT]-X(1,2)-[KQTS]-X(2)-T) (SEQ ID NO:30) (see peptides 1-4). […] These findings may explain similar PDGF-BB binding among FN heparin-binding domains, FNIII12-V15, FNIII12-15, FNIII12-14, FNIII12-13, and IIICS. […] Next, we determined if PDGF-BB-binding peptides from FNIII1 could inhibit PDGF-BB binding to FNIII1, FNIII12-14 and IIICS. For initial experiments we selected peptide 1 and peptide 2. For control, we used scrambled peptide 1.

Test [10] has as its target T4, TGF-β1 binding to recombinant FN domain (Homo sapiens, UniProt P01137).
T4 construct: made in house; host or cells: E. coli BL21DE3LysS (FN domains only)
The experiment in a line: Inhibition by peptide of TGF-β1 binding to recombinant FN domains.

In test [11] the target is T5, bFGF binding to recombinant FN domain (Homo sapiens, UniProt P09038).
T5 construct: made in house; host or cells: E. coli BL21DE3LysS (FN domains only)
T5 sequence (P09038 134-288 limits assumed): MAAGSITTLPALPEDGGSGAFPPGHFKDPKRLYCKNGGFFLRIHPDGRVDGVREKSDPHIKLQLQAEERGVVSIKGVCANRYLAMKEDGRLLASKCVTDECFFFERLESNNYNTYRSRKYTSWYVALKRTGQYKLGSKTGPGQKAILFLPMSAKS
The experiment in a line: Inhibition by peptide of bFGF binding to recombinant FN domains.

Test [12] deals with FGF-1 (Homo sapiens, UniProt P05230). The experiment in a line: Binding of FGF-1 to FN, FN domains and peptides.
FGF-1, sequence (P05230 whole entry, species assumed, the tested form may be a part): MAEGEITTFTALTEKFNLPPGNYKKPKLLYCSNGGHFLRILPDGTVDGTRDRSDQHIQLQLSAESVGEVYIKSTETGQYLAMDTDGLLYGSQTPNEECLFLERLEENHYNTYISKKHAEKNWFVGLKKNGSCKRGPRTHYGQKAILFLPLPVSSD
Test [13] addresses TGF-α (Homo sapiens, UniProt P01135). The experiment in a line: Binding of TGF-α to FN, FN domains and peptides.
Test [14] has as its target EGF (Homo sapiens, UniProt P01133). As to the kind of experiment: Binding of EGF to FN, FN domains and peptides.
Setting [15] is: peptide added directly to media with or without PDGF-BB.

T1 sequence (P01127 82-190 limits assumed): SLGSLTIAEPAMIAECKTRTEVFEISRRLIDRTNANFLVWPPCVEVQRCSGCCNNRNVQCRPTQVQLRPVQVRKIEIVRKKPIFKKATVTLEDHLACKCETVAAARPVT
bFGF (FGF-2), sequence (P09038 143-288): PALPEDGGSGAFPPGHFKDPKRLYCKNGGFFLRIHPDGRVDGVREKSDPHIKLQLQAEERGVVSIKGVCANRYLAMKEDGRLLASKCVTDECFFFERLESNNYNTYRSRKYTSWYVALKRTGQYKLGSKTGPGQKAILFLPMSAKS
T3 sequence (P01127 82-190 limits assumed): as the sequence (P01127 82-190 limits assumed) above
T4 sequence (P01137 279-390 limits assumed): as the sequence (P01137 279-390 limits assumed) above
TGF-α, sequence (P01135 40-89, species assumed): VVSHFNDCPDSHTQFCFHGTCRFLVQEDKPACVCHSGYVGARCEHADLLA
EGF, sequence (P01133 971-1023 limits assumed, species assumed): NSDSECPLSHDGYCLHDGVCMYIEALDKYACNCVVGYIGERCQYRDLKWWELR

Consider “FN70: 70 kDa amino terminus of FN, which includes fibrin and gelatin binding domains”, for which the “PDGF-BB binding, in words” value in [1] is “did not”. The “Binding of the GFs tested, in words” value in test [2] is recorded as “None of the GFs detectably bound; also recorded: In no case did any GF bind”.
For “FN630-667: half of the 76 aa FNIII1 peptide FN630-704”, the “PDGF-BB binding, in words” value in test [1] is “demonstrated PDGF-BB binding”.
Same read-out and setting: the value for “FN668-704: half of the 76 aa FNIII1 peptide FN630-704” was “demonstrated PDGF-BB binding”.
Regarding “FNIII1-2: recombinant FN domain, first and second type III repeat”, the dissociation constant (Kd) came out at 9.1 nM in test [3] and 37 nM in test [1]. The “Binding of the GFs tested, in words” value in test [2] is “all four GFs bound”. The “FN-null cell survival / proliferation” value in test [4] was “enhance survival”.
Regarding “FNIII1-11: recombinant FN domain; FNIII1 PDGF-binding domain contiguous with FNIII8-11 cell-binding domain”, in test [5] (equilibrium and/or kinetic binding), the “bFGF (FGF-2) binding, in words” value is “did not”. Besides, the “PDGF-BB binding, in words” value in [1] is “bound”. In addition, the “VEGF binding, in words” value in [6] is on record as “did not”. In addition, in test [4], the “FN-null cell survival in the absence of PDGF-BB” value is on record as “survived”; the “FN-null cell survival / proliferation” value was “robust proliferation”; the “FN-null cell survival / proliferation, summary statement” value was “survived in the absence of PDGF-BB and proliferated in its presence”; the “FN-null cell survival with PDGF at 3 days” value is “best survival response”. The “TGF-β1 binding, in words” value in [7] is “bound”.
For “FNIII1: recombinant FN domain, first type III repeat”, the Kd in [3] turned out to be 370 nM; in test [1] it was 32 nM; in test [7] (method not restated (equilibrium and kinetic binding performed)), 6.2 nM. In test [2], the “Binding of the GFs tested, in words” value is “all four GFs bound”. Further, the “FN-null cell survival with PDGF at 3 days” value in test [4] is listed as “increased survival”.
“FNIII2: recombinant FN domain, second type III repeat”: the “Binding of the GFs tested, in words” value in [2] was “all four GFs bound”.
On to “FNIII8-11: classic cell-binding domain of FN containing RGD”, for which, in [1], the “PDGF-BB binding, in words” value is listed as “did not”. For the same substance, the “Binding of the GFs tested, in words” value in [2] was “None of the GFs detectably bound; also recorded: In no case did any GF bind”. Also, in test [4], the “FN-null cell survival / proliferation, summary statement” value is on record as “failed to survive even in the presence of PDGF-BB; also recorded: did not support cell survival” and the “FN-null cell survival with PDGF at 3 days” value is recorded as “failed to survive”.
With “FNIII8-V15: FN functional domain containing FNIII8-11 plus a GF-binding domain”, in test [4], the “FN-null cell survival / proliferation” value is “robust proliferation”; the “FN-null cell survival / proliferation, summary statement” value was “survived in the absence of PDGF-BB and proliferated in its presence”.
As for PSHISKYILRWRPK [P12], in [8] (setting [15]), the “FN null cell survival and proliferation” value is “smallest peptide capable of supporting FN-null cell survival or proliferation”.
On to PSLAKKQRFRHRNR, for which the “FN null cell survival and proliferation” value in test [8] (in the presence of PDGF-BB) was “supported FN null cell survival and proliferation”.
For QLISIQQYGHQEVTRFDFTTTSTST [peptide 2], the “Inhibition of PDGF-BB binding to FNIII1, FNIII12-14 and IIICS” value in test [9] is “neither peptide 2, nor the scramble variant of peptide 1 (FN634-658s), demonstrated inhibition”.
For the substance QPSHISKY, the “TGF-β1 binding, in words” value in test [7] is recorded as “minimal binding activity”.
QPSHISKYILRWRPKNSVGRWKEAT [peptide 1]: the “Inhibition of TGF-β1 binding to any recombinant FN domain” value in test [10] was “completely inhibited”. The “FN null cell survival and proliferation” value in test [8] (setting [15]) is “supported FN null cell survival and proliferation”. Besides, the “Inhibition of bFGF binding to any recombinant FN domain” value in test [11] is listed as “completely inhibited”. The “Inhibition of PDGF-BB binding to FNIII1, FNIII12-14 and IIICS” value in test [9] is recorded as “marked inhibition”.
For the substance QPSVGQQMIFEEHGFRRTTPPTTAT [peptide 4], the dissociation constant (Kd) in test [7] (equilibrium binding) is 100 nM.
As to “anastellin: 76-aa peptide within FNIII1; anti-angiogenic, promotes FN polymerization [reference compound]”, the “PDGF-BB binding, in words” value in test [1] is “demonstrated PDGF-BB binding”. Further, the “Binding of the GFs tested, in words” value in [2] is “all but VEGF bound”.
As for “intact FN: intact human plasma fibronectin (SEQ ID NO:1)”, the “FGF-1 binding, in words” value in test [12] was “did not”. For the same substance, in [13], the “TGF-α binding, in words” value is given as “did not”. Further, the Kd in test [5] (equilibrium binding, intact FN, read-out: KD, FGF-2 (bFGF) binding) was 44 nM; in test [1], 49 nM; in test [7] (equilibrium binding) it was 53 nM. The “EGF binding, in words” value in test [14] is “did not”. Besides, in [4], the “FN-null cell survival / proliferation” value is recorded as “robust proliferation”. The “FN-null cell survival / proliferation, summary statement” value in test [4] is “survived in the absence of PDGF-BB and proliferated in its presence”.
